According to ChEMBL document CHEMBL1157334, “Neuroprotective diterpenes from the fruiting body of Antrodia camphorata” (2006):

Columns and labels:
[1] = Neuroprotective effect against amyloid beta(25 to 35)-induced cell death in Harlan Sprague-Dawley rat pups cortical neurons assessed as cell death at 20 uM treated 2 hrs before amyloid beta(25 to 35) treatment after 40 hrs by MTT assay; conditions: for cell death at 20 µM: Rattus norvegicus, Harlan Sprague-Dawley, Cortical neurone
[2] = Neuroprotective effect against amyloid beta(25 to 35)-induced cell death in Harlan Sprague-Dawley rat pups cortical neurons assessed as cell death at 10 uM treated 2 hrs before amyloid beta(25 to 35) treatment after 40 hrs by MTT assay

`C=C1CC[C@H]2[C@@](C)(CO)CCC[C@]2(C)[C@H]1CCC1=CCOC1=O` showed a cell death at 20 µM [1] of 32.6%.

Compound `C=C1CC[C@H]2[C@@](C)(CO)CCC[C@]2(C)[C@H]1CCC1CCOC1=O` (some centres not stated) has a cell death at 20 µM [1] of 30.8%.

In the case of `C=C1CC[C@@H]2[C@](C)(CC[C@H](O)[C@]2(C)CO)[C@H]1/C=C/C1CCOC1=O` (stereo in doubt; 3), the cell death at 20 µM [1] is reported as 29.3%.

With `CC(=O)N[C@@H](CC(=O)O)C(=O)N[C@@H](CCC(=O)O)C(=O)N[C@H](C(=O)N[C@H](C=O)CC(=O)O)C(C)C` the cell death at 20 µM [1] was 23.1%.

`C=C1CC[C@@H]2[C@](C)(CO)[C@H](O)CC[C@@]2(C)[C@@H]1/C=C/C1=CCOC1=O` gave a cell death at 20 µM [1] of 29.5%.

With `C=C1CC[C@@H]2[C@](C)(CC[C@H](O)[C@]2(C)CO)[C@H]1/C=C/C1CCOC1=O` (stereo in doubt; 2) the cell death [2] was 29.5% and the cell death [1] was 26.3%.
